How the values were obtained:
furin = furin (Homo sapiens, UniProt P09958); experiment: Vero/furin cell-based furin enzyme inhibitory assay; settings: for furin inhibitory activity: Vero/furin cells, up to a concentration of 40.0 μM
TMPRSS2 in LNCaP cells = system: TMPRSS2 in LNCaP cells; design: species or system human; settings: read-out: IC50, LNCaP cell-based proteolytic enzyme inhibition
TMPRSS2 = TMPRSS2 (Homo sapiens, UniProt O15393); experiment: VeroE6/TMPRSS2 cell-based TMPRSS2 enzyme inhibitory assay; settings: VeroE6/TMPRSS2 cells; up to a concentration of 4.0 μM
TMPRSS2, sequence (O15393 whole entry): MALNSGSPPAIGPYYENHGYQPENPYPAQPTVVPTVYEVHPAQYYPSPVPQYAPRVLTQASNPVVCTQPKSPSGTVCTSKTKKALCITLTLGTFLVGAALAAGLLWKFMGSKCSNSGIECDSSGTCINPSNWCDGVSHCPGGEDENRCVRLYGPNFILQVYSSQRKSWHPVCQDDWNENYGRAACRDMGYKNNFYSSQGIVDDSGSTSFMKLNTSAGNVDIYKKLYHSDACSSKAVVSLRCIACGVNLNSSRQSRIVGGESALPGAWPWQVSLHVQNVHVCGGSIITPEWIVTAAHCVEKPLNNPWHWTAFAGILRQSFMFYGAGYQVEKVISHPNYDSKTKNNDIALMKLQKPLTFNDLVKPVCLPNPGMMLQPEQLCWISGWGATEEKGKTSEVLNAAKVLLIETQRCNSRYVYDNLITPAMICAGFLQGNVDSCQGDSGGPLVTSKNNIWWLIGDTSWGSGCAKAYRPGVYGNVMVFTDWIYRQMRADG

furin, sequence (P09958 108-794): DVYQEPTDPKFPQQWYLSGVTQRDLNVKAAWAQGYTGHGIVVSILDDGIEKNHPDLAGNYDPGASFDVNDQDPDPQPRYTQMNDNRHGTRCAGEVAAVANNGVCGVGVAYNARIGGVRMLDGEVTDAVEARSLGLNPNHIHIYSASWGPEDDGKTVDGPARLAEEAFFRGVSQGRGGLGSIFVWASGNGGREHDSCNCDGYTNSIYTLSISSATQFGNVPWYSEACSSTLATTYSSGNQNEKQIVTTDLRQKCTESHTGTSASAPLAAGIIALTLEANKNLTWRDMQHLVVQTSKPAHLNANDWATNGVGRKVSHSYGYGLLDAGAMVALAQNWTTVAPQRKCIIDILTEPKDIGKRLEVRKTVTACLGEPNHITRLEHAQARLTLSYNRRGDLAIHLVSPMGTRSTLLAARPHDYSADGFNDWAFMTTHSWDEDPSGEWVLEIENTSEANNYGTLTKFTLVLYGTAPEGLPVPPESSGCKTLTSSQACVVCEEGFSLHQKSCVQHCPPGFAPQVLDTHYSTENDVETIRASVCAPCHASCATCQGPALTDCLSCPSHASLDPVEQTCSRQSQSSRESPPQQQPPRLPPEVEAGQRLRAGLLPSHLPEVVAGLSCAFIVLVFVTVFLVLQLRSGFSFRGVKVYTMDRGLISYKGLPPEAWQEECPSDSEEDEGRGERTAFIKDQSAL

## CN(C)C(=O)COC(=O)Cc1ccc(OC(=O)c2ccc(NC(=N)N)cc2)cc1 [camostat]
furin
  furin inhibitory activity: inactive
TMPRSS2 in LNCaP cells
  IC50: 0.026 ± 0.03 µM

## N=C(N)c1ccc2cc(OC(=O)c3ccc(N=C(N)N)cc3)ccc2c1 [nafamostat]
furin
  furin inhibitory activity: inactive

## CN(Cc1cc(Br)cc(Br)c1N)C1CCCCC1 [Bromhexine, bromhexine]
TMPRSS2
  TMPRSS2 inhibitory activity: inactive

## N=C(N)c1ccc(/N=N/Nc2ccc(C(=N)N)cc2)cc1 [diminazene]
furin
  IC50: 13.2 µM

Source: paper PMC8920474 (Current Research in Chemical Biology, 2022)
